Reference: the supplement of paper PMC10307832

What was measured:
Experiment in all cases: relative viability (nuclei count vs DMSO), 5 days (fraction); higher = more cells survive
EBC-1 = tested on: EBC-1
Method in brief: (§1)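 Relative viability equals treated-well nuclei counts divided by vehicle-well nuclei counts. Counts came from 4× images of lung cancer cell lines grown in 1536-well plates for 5 days after pin-tool dosing on the day after seeding. Dosing used one drug alone or a fixed anchor-drug dose plus five library-drug doses (not always all listed) in √10 steps, and values are medians of duplicate plates.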

HCC-366 = tested on: HCC-366
Method in brief: as §1

NCI-H1703 = tested on: NCI-H1703
Method in brief: as §1

LXF-289 = tested on: LXF-289
Method in brief: as §1

A549 = tested on: A549
Method in brief: as §1

HCC-44 = tested on: HCC-44
Method in brief: as §1

LOU-NH91 = tested on: LOU-NH91
Method in brief: as §1

NCI-H3122 = tested on: NCI-H3122
Method in brief: as §1

NCI-H1299 = tested on: NCI-H1299
Method in brief: as §1

NCI-H2085 = tested on: NCI-H2085
Method in brief: as §1

IA-LM = tested on: IA-LM
Method in brief: as §1

Calu-6 = tested on: Calu-6
Method in brief: as §1

NCI-H1437 = tested on: NCI-H1437
Method in brief: as §1

For `CC(=O)O[C@@]12CO[C@@H]1C[C@H](O)[C@@]1(C)C(=O)[C@H](O)C3=C(C)[C@@H](OC(=O)[C@H](O)[C@@H](NC(=O)OC(C)(C)C)c4ccccc4)C[C@@](O)([C@@H](OC(=O)c4ccccc4)[C@H]21)C3(C)C` [Docetaxel] + C[C@@H](Oc1cc(-c2cnn(C3CCNCC3)c2)cnc1N)c1c(Cl)ccc(F)c1Cl [Crizotinib] (partner 1 µM), the relative viability (EBC-1; first compound 0.0002 µM) was 0.187, the relative viability (EBC-1; first compound 0.000632 µM) was 0.146 and the relative viability (EBC-1; first compound 0.002 µM) was 0.167. It also gave a relative viability (EBC-1; first compound 0.006325 µM) of 0.163, a relative viability (EBC-1; first compound 0.02 µM) of 0.151 and a relative viability (HCC-366; first compound 0.0002 µM) of 0.426. For the same molecule, the relative viability (HCC-366; first compound 0.000632 µM) was 0.0953, the relative viability (HCC-366; first compound 0.002 µM) was 0.0204 and the relative viability (HCC-366; first compound 0.006325 µM) was 0.0165. For the same molecule, the relative viability (HCC-366; first compound 0.02 µM) was 0.0108, the relative viability (NCI-H1703; first compound 0.0002 µM) was 0.483 and the relative viability (NCI-H1703; first compound 0.000632 µM) was 0.379. For the same molecule, the relative viability (NCI-H1703; first compound 0.002 µM) was 0.226, the relative viability (NCI-H1703; first compound 0.006325 µM) was 0.0913 and the relative viability (NCI-H1703; first compound 0.02 µM) was 0.133. The relative viability (LXF-289; first compound 0.0002 µM) was 0.819, the relative viability (LXF-289; first compound 0.000632 µM) was 0.483 and the relative viability (LXF-289; first compound 0.002 µM) was 0.452. For the same molecule, the relative viability (LXF-289; first compound 0.006325 µM) was 0.119, the relative viability (LXF-289; first compound 0.02 µM) was 0.139 and the relative viability (A549; first compound 0.0002 µM) was 0.641. It also gave a relative viability (A549; first compound 0.000632 µM) of 0.432, a relative viability (A549; first compound 0.002 µM) of 0.0535 and a relative viability (A549; first compound 0.006325 µM) of 0.0545. It also gave a relative viability (A549; first compound 0.02 µM) of 0.0485, a relative viability (HCC-44; first compound 0.0002 µM) of 0.805 and a relative viability (HCC-44; first compound 0.000632 µM) of 0.536. It also gave a relative viability (HCC-44; first compound 0.002 µM) of 0.483, a relative viability (HCC-44; first compound 0.006325 µM) of 0.195 and a relative viability (HCC-44; first compound 0.02 µM) of 0.12. The relative viability (LOU-NH91; first compound 0.0002 µM) was 0.734, the relative viability (LOU-NH91; first compound 0.000632 µM) was 0.664 and the relative viability (LOU-NH91; first compound 0.002 µM) was 0.508. It also gave a relative viability (LOU-NH91; first compound 0.006325 µM) of 0.373, a relative viability (LOU-NH91; first compound 0.02 µM) of 0.362 and a relative viability (NCI-H3122; first compound 0.0002 µM) of 0.241. For the same molecule, the relative viability (NCI-H3122; first compound 0.000632 µM) was 0.257, the relative viability (NCI-H3122; first compound 0.002 µM) was 0.26 and the relative viability (NCI-H3122; first compound 0.006325 µM) was 0.207. It also gave a relative viability (NCI-H3122; first compound 0.02 µM) of 0.178, a relative viability (NCI-H1299; first compound 0.0002 µM) of 0.972 and a relative viability (NCI-H1299; first compound 0.000632 µM) of 0.984. For the same molecule, the relative viability (NCI-H1299; first compound 0.002 µM) was 0.695, the relative viability (NCI-H1299; first compound 0.006325 µM) was 0.392 and the relative viability (NCI-H1299; first compound 0.02 µM) was 0.305. The relative viability (NCI-H2085; first compound 0.0002 µM) was 0.63, the relative viability (NCI-H2085; first compound 0.000632 µM) was 0.706 and the relative viability (NCI-H2085; first compound 0.002 µM) was 0.737. The relative viability (NCI-H2085; first compound 0.006325 µM) was 0.415, the relative viability (NCI-H2085; first compound 0.02 µM) was 0.317 and the relative viability (IA-LM; first compound 0.0002 µM) was 0.395. It also gave a relative viability (IA-LM; first compound 0.000632 µM) of 0.145, a relative viability (IA-LM; first compound 0.002 µM) of 0.0955 and a relative viability (IA-LM; first compound 0.006325 µM) of 0.078. For the same molecule, the relative viability (IA-LM; first compound 0.02 µM) was 0.0873, the relative viability (Calu-6; first compound 0.0002 µM) was 0.805 and the relative viability (Calu-6; first compound 0.000632 µM) was 0.394. It also gave a relative viability (Calu-6; first compound 0.002 µM) of 0.219, a relative viability (Calu-6; first compound 0.006325 µM) of 0.159 and a relative viability (Calu-6; first compound 0.02 µM) of 0.105. It also gave a relative viability (NCI-H1437; first compound 0.0002 µM) of 0.901, a relative viability (NCI-H1437; first compound 0.000632 µM) of 0.878 and a relative viability (NCI-H1437; first compound 0.002 µM) of 0.197. It also gave a relative viability (NCI-H1437; first compound 0.006325 µM) of 0.113 and a relative viability (NCI-H1437; first compound 0.02 µM) of 0.11.

In the case of `CC(=O)O[C@@]12CO[C@@H]1C[C@H](O)[C@@]1(C)C(=O)[C@H](O)C3=C(C)[C@@H](OC(=O)[C@H](O)[C@@H](NC(=O)OC(C)(C)C)c4ccccc4)C[C@@](O)([C@@H](OC(=O)c4ccccc4)[C@H]21)C3(C)C` [Docetaxel] + C[C@]1(O)C[C@@H](c2nc(-c3ccc4ccc(-c5ccccc5)nc4c3)c3c(N)nccn32)C1 [Linsitinib] (partner 1 µM), the relative viability (EBC-1; first compound 0.0002 µM) is reported as 0.776, the relative viability (EBC-1; first compound 0.000632 µM) is reported as 0.872 and the relative viability (EBC-1; first compound 0.002 µM) is reported as 0.204. For the same molecule, the relative viability (EBC-1; first compound 0.006325 µM) was 0.271, the relative viability (EBC-1; first compound 0.02 µM) was 0.129 and the relative viability (HCC-366; first compound 0.0002 µM) was 0.423. The relative viability (HCC-366; first compound 0.000632 µM) was 0.545, the relative viability (HCC-366; first compound 0.002 µM) was 0.0386 and the relative viability (HCC-366; first compound 0.006325 µM) was 0.012. For the same molecule, the relative viability (HCC-366; first compound 0.02 µM) was 0.0114, the relative viability (NCI-H1703; first compound 0.0002 µM) was 0.741 and the relative viability (NCI-H1703; first compound 0.000632 µM) was 1.15. The relative viability (NCI-H1703; first compound 0.002 µM) was 0.258, the relative viability (NCI-H1703; first compound 0.006325 µM) was 0.116 and the relative viability (NCI-H1703; first compound 0.02 µM) was 0.101. The relative viability (LXF-289; first compound 0.0002 µM) was 0.989, the relative viability (LXF-289; first compound 0.000632 µM) was 0.745 and the relative viability (LXF-289; first compound 0.002 µM) was 0.628. For the same molecule, the relative viability (LXF-289; first compound 0.006325 µM) was 0.144, the relative viability (LXF-289; first compound 0.02 µM) was 0.106 and the relative viability (A549; first compound 0.0002 µM) was 0.578. For the same molecule, the relative viability (A549; first compound 0.000632 µM) was 0.372, the relative viability (A549; first compound 0.002 µM) was 0.0857 and the relative viability (A549; first compound 0.006325 µM) was 0.0667. For the same molecule, the relative viability (A549; first compound 0.02 µM) was 0.036, the relative viability (HCC-44; first compound 0.0002 µM) was 0.608 and the relative viability (HCC-44; first compound 0.000632 µM) was 0.747. For the same molecule, the relative viability (HCC-44; first compound 0.002 µM) was 0.589, the relative viability (HCC-44; first compound 0.006325 µM) was 0.201 and the relative viability (HCC-44; first compound 0.02 µM) was 0.106. For the same molecule, the relative viability (LOU-NH91; first compound 0.0002 µM) was 0.967, the relative viability (LOU-NH91; first compound 0.000632 µM) was 0.8 and the relative viability (LOU-NH91; first compound 0.002 µM) was 0.586. It also gave a relative viability (LOU-NH91; first compound 0.006325 µM) of 0.434, a relative viability (LOU-NH91; first compound 0.02 µM) of 0.324 and a relative viability (NCI-H3122; first compound 0.0002 µM) of 1. It also gave a relative viability (NCI-H3122; first compound 0.000632 µM) of 1, a relative viability (NCI-H3122; first compound 0.002 µM) of 0.79 and a relative viability (NCI-H3122; first compound 0.006325 µM) of 0.349. It also gave a relative viability (NCI-H3122; first compound 0.02 µM) of 0.218, a relative viability (NCI-H1299; first compound 0.0002 µM) of 0.905 and a relative viability (NCI-H1299; first compound 0.000632 µM) of 0.98. For the same molecule, the relative viability (NCI-H1299; first compound 0.002 µM) was 0.787, the relative viability (NCI-H1299; first compound 0.006325 µM) was 0.432 and the relative viability (NCI-H1299; first compound 0.02 µM) was 0.255. The relative viability (NCI-H2085; first compound 0.0002 µM) was 0.868, the relative viability (NCI-H2085; first compound 0.000632 µM) was 0.888 and the relative viability (NCI-H2085; first compound 0.002 µM) was 0.652. It also gave a relative viability (NCI-H2085; first compound 0.006325 µM) of 0.576, a relative viability (NCI-H2085; first compound 0.02 µM) of 0.276 and a relative viability (IA-LM; first compound 0.0002 µM) of 0.351. The relative viability (IA-LM; first compound 0.000632 µM) was 0.449, the relative viability (IA-LM; first compound 0.002 µM) was 0.112 and the relative viability (IA-LM; first compound 0.006325 µM) was 0.0528. The relative viability (IA-LM; first compound 0.02 µM) was 0.042, the relative viability (Calu-6; first compound 0.0002 µM) was 0.819 and the relative viability (Calu-6; first compound 0.000632 µM) was 0.968. The relative viability (Calu-6; first compound 0.002 µM) was 0.332, the relative viability (Calu-6; first compound 0.006325 µM) was 0.142 and the relative viability (Calu-6; first compound 0.02 µM) was 0.0881. For the same molecule, the relative viability (NCI-H1437; first compound 0.0002 µM) was 0.964, the relative viability (NCI-H1437; first compound 0.000632 µM) was 0.805 and the relative viability (NCI-H1437; first compound 0.006325 µM) was 0.124. The relative viability (NCI-H1437; first compound 0.02 µM) was 0.0906.
